# Laboratory results: PubChem BioAssay (NCI)
#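 Values below derive from 48-hour exposures of cells grown in 96-well plates, with endpoints linearly interpolated between the two concentrations bracketing the appropriate inhibition level. GI50: concentration for 50% inhibition of growth. TGI marks complete inhibition of growth.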
# Test system: MDA-MB-468 breast
# Test: NCI anticancer screen, dose series, 48 h
SMILES,GI50 [µM],TGI [µM]
COC(=O)C1(C)Cc2cc(OC(C)=O)c(OC(C)=O)cc2N1 (stereo not drawn),1.9,6.53
CCCCCCCCCCCCCCCC[N+]1(C)CCOCC1,0.374,2.16
O=c1c(F)cn(Cc2ccccc2CCl)c(=O)n1Cc1ccccc1CCl,0.684,2.27
O=S(=O)(NCCCNc1nccc(-c2c(-c3ccc(F)cc3)nc3sccn23)n1)c1ccc2ccccc2c1,3.87,> 100
OC(c1cc2ccc(C(F)(F)F)cc2c2cc(C(F)(F)F)ccc12)C1CCCCN1 (stereo not drawn),1.6,3.09
O=C1CCCCN1CCCCC#Cc1cccc(C#Cc2cccnc2)c1,10.2,28.5
C=C1C[C@@H]2CC[C@@]34C[C@H]5O[C@H]6[C@@H](O3)[C@H]3O[C@H](CC[C@@H]3O[C@H]6[C@@H]5O4)CC(=O)C[C@@H]3[C@@H](OC)[C@@H](C[C@H](O)CN)O[C@H]3C[C@H]3O[C@@H](CC[C@@H]1O2)C[C@@H](C)C3=C,< 0.01,0.0661
C(=N\Nc1nnn(Cc2ccccc2)n1)/c1ccccc1,1.48,11.9
O=C1NC(=O)c2c1c1c3ccccc3ccc1c1[nH]c3ccccc3c21,0.953,8.87
O=C1OCC2=C1C(c1ccccc1)c1cc3c(cc1N2CCO)OCO3 (stereo not drawn),1.22,4.61
CN(C)c1ccc(-c2ccc(-c3ccc(C(=N)N)cc3)s2)cc1,1.94,3.76
COc1cc(NCCCCCCCNC(C)C)c2nccc(C)c2c1,3.11,14.7
C=C1C(=O)O[C@H]2[C@H]1CC/C(C=Nc1c(N)cc(C(F)(F)F)cc1Br)=C\CC[C@@]1(C)O[C@@H]21,1.88,4.19
CCC1=CC2CN(C1)Cc1c([nH]c3ccccc13)[C@@](C(=O)OC)(c1cc3c(cc1OC)N(C)[C@H]1[C@@](O)(C(=O)OC)[C@H](OC(C)=O)[C@]4(CC)C=CCN5CC[C@]31[C@@H]54)C2 (stereo partly drawn),–,21
O=C(N/N=C/c1ccccc1O)c1ccccc1,0.292,> 100
Cc1ccc(-c2nc3nc(-c4ccc(F)cc4)nc(N4CCCNCC4)c3o2)cc1,1.58,3.18
O=c1oc2ccc(I)cc2c(=O)n1-c1ccc(Cl)cc1F,2.11,5.81
COc1ccc(OC)c(Cn2cc3c(c2-c2ccccc2)CCc2cnoc2-3)c1,2.64,11.5
CCOc1ccc(-c2nnc(C3CC(NC(=O)c4cccc5nccnc45)C3)n2-c2ccccc2F)nc1 (stereo not drawn),10,71.5
CN1/C(=C\C=C\C2=[N+](C)c3ccccc3C2(C)C)C(C)(C)c2ccccc21,0.0217,0.123
CN(C)C(=O)O[C@H]1CN[C@H](C#Cc2cc3ncnc(Nc4ccc(OCc5cccc(F)c5)c(Cl)c4)c3s2)C1,0.595,5.11
CNC(=O)c1nn(C)c2c1C(C)(C)Cc1cnc(Nc3ccc(N4CCN(C)CC4)cc3)nc1-2,0.813,> 4.2
C=C1C(=O)O[C@H]2[C@H]1CC/C(COC(=O)NCC(C)c1ccc(CC(C)C)cc1)=C\CC[C@@]1(C)O[C@@H]21 (stereo partly drawn),0.656,1.84
Cn1cc(C2=C(c3cn(C4CCN(Cc5ccccn5)CC4)c4ccccc34)C(=O)NC2=O)c2ccccc21,2.08,> 100
O=C(O)[C@@H](Cc1ccc2ccccc2c1)NC(=O)n1c2ccccc2c2ccccc21,1.9,7.17
COc1ccc(CN2C3CC2CN(c2ccc(-c4cc(OCC(C)(C)O)cn5ncc(C#N)c45)cn2)C3)cn1,8.09,> 100
Nc1ccc(/C=C/C(=O)NCc2cc3cc(-c4ccc(C(=O)N5CCC(F)(F)CC5)cc4)cc(-c4ccc(F)cc4)c3o2)cn1,22.6,> 100
